{"source": "patent US12590091B2", "about": "“1H-pyrrolo[3,2-C]pyridine and 1H-pyrrolo[2,3-C]pyridine derivatives as TLR9 inhibitors for the treatment of fibrosis” (BRISTOL-MYERS SQUIBB COMPANY, priority 2020, dated 2026)", "data": [{"target": "T1, human TLR8 (Homo sapiens, UniProt Q9NR97)", "T1 construct": "host or cells: HEK-Blue cells", "T1 sequence (Q9NR97 27-1041)": "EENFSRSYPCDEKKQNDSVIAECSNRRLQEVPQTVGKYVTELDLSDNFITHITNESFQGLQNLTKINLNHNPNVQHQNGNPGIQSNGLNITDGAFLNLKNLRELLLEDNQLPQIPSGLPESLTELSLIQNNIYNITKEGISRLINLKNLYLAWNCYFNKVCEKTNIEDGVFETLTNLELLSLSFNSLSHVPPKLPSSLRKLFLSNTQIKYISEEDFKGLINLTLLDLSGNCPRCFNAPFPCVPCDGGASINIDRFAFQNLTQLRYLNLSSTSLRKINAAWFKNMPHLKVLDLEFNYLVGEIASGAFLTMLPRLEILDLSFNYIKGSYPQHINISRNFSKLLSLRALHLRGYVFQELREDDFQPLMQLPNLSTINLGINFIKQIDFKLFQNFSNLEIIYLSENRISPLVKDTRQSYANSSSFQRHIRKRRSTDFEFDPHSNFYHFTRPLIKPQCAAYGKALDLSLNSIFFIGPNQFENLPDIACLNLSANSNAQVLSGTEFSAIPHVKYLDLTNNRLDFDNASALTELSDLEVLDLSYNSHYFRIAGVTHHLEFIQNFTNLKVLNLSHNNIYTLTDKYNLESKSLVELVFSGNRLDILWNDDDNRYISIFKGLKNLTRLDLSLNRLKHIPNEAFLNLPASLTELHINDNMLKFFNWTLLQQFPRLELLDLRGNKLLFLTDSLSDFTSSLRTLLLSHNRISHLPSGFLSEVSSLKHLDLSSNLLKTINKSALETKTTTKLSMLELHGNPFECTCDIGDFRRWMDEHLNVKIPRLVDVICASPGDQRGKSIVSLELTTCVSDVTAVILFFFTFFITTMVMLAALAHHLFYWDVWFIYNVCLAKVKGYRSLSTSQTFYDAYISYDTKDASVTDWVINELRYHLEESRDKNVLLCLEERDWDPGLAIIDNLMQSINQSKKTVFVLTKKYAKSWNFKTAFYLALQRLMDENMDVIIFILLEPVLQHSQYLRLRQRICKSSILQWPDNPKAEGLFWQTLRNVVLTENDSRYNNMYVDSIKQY", "assay": "TLR8 inhibition reporter assay (HEK-Blue cells, SEAP reporter)", "type": "cell-based", "settings": "HEK-Blue cells overexpressing human TLR8, stimulated with R848 15.9 μM, 22 hour incubation", "procedure": "TLR7/8/9 Inhibition Reporter Assays\nHEK-Blue™-cells (Invivogen) overexpressing human TLR7, TLR8 or TLR9 receptors were used for screening inhibitors of these receptors using an inducible SEAP (secreted embryonic alkaline phosphatase) reporter gene under the control of the IFN-β minimal promoter fused to five NF-κB and AP-1-binding sites. Briefly, cells are seeded into Greiner 384 well plates (15000 cells per well for TLR7, 20,000 for TLR8 and 25,000 for TLR9) and then treated with test compounds in DMSO to yield a final dose response concentration range of 0.05 nM-50 μM. After a 30 minute compound pre-treatment at room temperature, the cells are then stimulated with a TLR7 ligand (gardiquimod at a final concentration of 7.5 μM), TLR8 ligand (R848 at a final concentration of 15.9 μM) or TLR9 ligand (ODN2006 at a final concentration of 5 nM) to activate NF-κB and AP-1 which induce the production of SEAP. After a 22 hour incubation at 37° C., 5% CO2, SEAP levels are determined with the addition of HEK-Blue™ Detection reagent (Invivogen), a cell culture medium that allows for detection of SEAP, according to manufacturer's specifications. The percent inhibition is determined as the % reduction in the HEK-Blue signal present in wells treated with agonist plus DMSO alone compared to wells treated with a known inhibitor.", "units": {"IC50": "µM"}, "values": [{"molecule": "Cc1nc(-c2ccc(C3(O)CCN(C(C)C)CC3)c(F)c2)cc2c1cc(-c1ccc(S(C)(=O)=O)cc1)n2C", "note": "[Example 107, 4-(4-(1,4-dimethyl-2-(4-(methylsulfonyl)phenyl)-1H-pyrrolo[3,2-c]pyridin-6-yl)-2-fluorophenyl)-1-isopropylpiperidin-4-ol]", "IC50": 2.7}, {"molecule": "Cc1nc(-c2ccc(N3CCN(CCCO)CC3)c(F)c2F)cc2c1cc(-c1ccc(S(C)(=O)=O)cc1)n2C", "note": "[Example 55, 3-(4-(4-(1,4-dimethyl-2-(4-(methylsulfonyl)phenyl)-1H-pyrrolo[3,2-c]pyridin-6-yl)-2,3-difluorophenyl)piperazin-1-yl)propan-1-ol]", "IC50": "> 50"}, {"molecule": "Cc1nc(-c2ccc(N3CCN(CCCO)CC3)cc2)cc2c1cc(-c1ccc(S(=O)(=O)C3CC3)cc1)n2C", "note": "[Example 47, 3-(4-(4-(2-(4-(cyclopropylsulfonyl)phenyl)-1,4-dimethyl-1H-pyrrolo[3,2-c]pyridin-6-yl)phenyl)piperazin-1-yl)propan-1-ol]", "IC50": "> 25"}, {"molecule": "Cc1nc(-c2ccc(C3(O)CCN(C4CC4)CC3)cc2)cc2c1cc(-c1ccc(S(C)(=O)=O)cc1)n2C", "note": "[Example 87, 1-cyclopropyl-4-(4-(1,4-dimethyl-2-(4-(methylsulfonyl)phenyl)-1H-pyrrolo[3,2-c]pyridin-6-yl)phenyl)piperidin-4-ol]", "IC50": 4}, {"molecule": "CCOC(=O)N1CCC(N2CCC(c3cc4c(-c5ccc(OC)c(OC)c5)c(C)n(C)c4cn3)CC2)CC1", "note": "[Example 20, ethyl 4-(3-(3,4-dimethoxyphenyl)-1,2-dimethyl-1H-pyrrolo[2,3-c]pyridin-5-yl)-[1,4′-bipiperidine]-1′-carboxylate]", "IC50": "> 50"}, {"molecule": "CC(C)(O)CN1CCN(Cc2ccc(-c3cc4c(cn3)cc(-c3ccc(S(C)(=O)=O)cc3)n4C3CC3)cc2)CC1", "note": "[Example 128, 1-(4-(4-(1-cyclopropyl-2-(4-(methylsulfonyl)phenyl)-1H-pyrrolo[3,2-c]pyridin-6-yl)benzyl)piperazin-1-yl)-2-methylpropan-2-ol]", "IC50": 7.9}, {"molecule": "Cc1nc(-c2ccc(CN3C[C@@H]4CC[C@H]3CN4CCC(C)(C)O)cc2)cc2c1cc(-c1ccc(S(C)(=O)=O)cc1)n2C", "note": "[Example 61, 4-((1S,4S)-5-(4-(1,4-dimethyl-2-(4-(methylsulfonyl)phenyl)-1H-pyrrolo[3,2-c]pyridin-6-yl)benzyl)-2,5-diazabicyclo[2.2.2]octan-2-yl)-2-methylbutan-2-ol]", "IC50": 0.86}, {"molecule": "COc1ccc(-c2cc3cnc(-c4ccc(N5CCN(C6CCC6)CC5)cc4)cc3n2C)cc1OC", "note": "[Example 10, 6-(4-(4-Cyclobutylpiperazin-1-yl)phenyl)-2-(3,4-dimethoxyphenyl)-1-methyl-1H-pyrrolo[3,2-c]pyridine]", "IC50": 5.2}, {"molecule": "Cc1nc(-c2ccc([C@]3(O)CCN(C(C)C)C(C)(C)C3)c(F)c2)cc2c1cc(-c1ccc(S(C)(=O)=O)cc1)n2C", "note": "[Example 106, (S)-4-(4-(1,4-dimethyl-2-(4-(methylsulfonyl)phenyl)-1H-pyrrolo[3,2-c]pyridin-6-yl)-2-fluorophenyl)-1-isopropyl-2,2-dimethylpiperidin-4-ol]", "IC50": 0.7}, {"molecule": "Cc1nc(C2CCN(C3CC4CCC(C3)N4CC(C)C)CC2)cc2c1cc(-c1ccc(S(C)(=O)=O)cc1)n2C", "note": "(centres unmarked) [Example 114, 6-(1-(8-isobutyl-8-azabicyclo[3.2.1]octan-3-yl)piperidin-4-yl)-1,4-dimethyl-2-(4-(methylsulfonyl)phenyl)-1H-pyrrolo[3,2-c]pyridine]", "IC50": "> 50"}, {"molecule": "CC(C)(O)CN1CC2CCC(C1)N2Cc1ccc(-c2cc3c(cn2)cc(-c2ccc(S(C)(=O)=O)cc2)n3C2CC2)cc1", "note": "[Example 130, 1-(8-(4-(1-cyclopropyl-2-(4-(methylsulfonyl)phenyl)-1H-pyrrolo[3,2-c]pyridin-6-yl)benzyl)-3,8-diazabicyclo[3.2.1]octan-3-yl)-2-methylpropan-2-ol]", "IC50": 6.4}, {"molecule": "Cc1nc(-c2ccc(N3CCN(CCO)CC3)c(F)c2)cc2c1cc(-c1ccc(S(C)(=O)=O)cc1)n2C", "note": "[Example 69, 2-(4-(4-(1,4-dimethyl-2-(4-(methylsulfonyl)phenyl)-1H-pyrrolo[3,2-c]pyridin-6-yl)-2-fluorophenyl)piperazin-1-yl)ethan-1-ol]", "IC50": "> 25"}, {"molecule": "CC(C)(O)CN1C2CCC1CN(Cc1ccc(-c3cc4c(cn3)cc(-c3ccc(S(C)(=O)=O)cc3)n4C3CC3)cc1)C2", "note": "[Example 121, 1-[3-[[4-[1-cyclopropyl-2-(4-methylsulfonylphenyl)pyrrolo[3,2-c]pyridin-6-yl]phenyl]methyl]-3,8-diazabicyclo[3.2.1]octan-8-yl]-2-methyl-propan-2-ol]", "IC50": "> 50"}, {"molecule": "Cc1nc(-c2ccc(N3CC4CCC(C3)N4CCCO)c(F)c2)cc2c1cc(-c1ccc(S(C)(=O)=O)cc1)n2C", "note": "[Example 77, 3-(3-(4-(1,4-dimethyl-2-(4-(methylsulfonyl)phenyl)-1H-pyrrolo[3,2-c]pyridin-6-yl)-2-fluorophenyl)-3,8-diazabicyclo[3.2.1]octan-8-yl)propan-1-ol]", "IC50": 19.2}, {"molecule": "COc1ccc(-c2c(C)[nH]c3cnc(C4CCN(C(=O)CCN5CCCC5)CC4)cc23)cc1OC", "note": "[Example 23, 1-(4-(3-(3,4-dimethoxyphenyl)-2-methyl-1H-pyrrolo[2,3-c]pyridin-5-yl)piperidin-1-yl)-3-(pyrrolidin-1-yl)propan-1-one]", "IC50": "> 50"}, {"molecule": "CC(C)N1CCN(c2ccc(-c3cc4c(cn3)cc(-c3ccc(S(C)(=O)=O)cc3)n4C)cc2)CC1", "note": "[Example 54, 6-(4-(4-isopropylpiperazin-1-yl)phenyl)-1-methyl-2-(4-(methylsulfonyl)phenyl)-1H-pyrrolo[3,2-c]pyridine]", "IC50": "> 50"}, {"molecule": "Cc1nc(-c2ccc(N3CCN(CCCO)CC3)cc2)cc2c1cc(-c1ccc(S(C)(=O)=O)cc1)n2C", "note": "[Example 36, 3-(4-(4-(1,4-dimethyl-2-(4-(methylsulfonyl)phenyl)-1H-pyrrolo[3,2-c]pyridin-6-yl)phenyl)piperazin-1-yl)propan-1-ol]", "IC50": "> 25"}, {"molecule": "COc1ccc(-c2c(C)[nH]c3cnc(C4CCN(C5CCN(C(=O)C(C)C)CC5)CC4)cc23)cc1OC", "note": "[Example 15, 1-(4-(3-(3,4-dimethoxyphenyl)-2-methyl-1H-pyrrolo[2,3-c]pyridin-5-yl)-[1,4′-bipiperidin]-1′-yl)-2-methylpropan-1-one]", "IC50": "> 50"}, {"molecule": "Cc1nc(-c2ccc(CN3CCN(CCC(C)(C)O)CC3)cc2)cc2c1c(F)c(-c1ccc(S(C)(=O)=O)cc1)n2C", "note": "[Example 115, 4-(4-(4-(3-fluoro-1,4-dimethyl-2-(4-(methylsulfonyl)phenyl)-1H-pyrrolo[3,2-c]pyridin-6-yl)benzyl)piperazin-1-yl)-2-methylbutan-2-ol]", "IC50": 2.1}, {"molecule": "COc1ccc(-c2cc3cnc(-c4ccc(N5CCN(C(=O)c6ccccc6)CC5)cc4)cc3n2C)cc1OC", "note": "[Example 29, (4-(4-(2-(3,4-dimethoxyphenyl)-1-methyl-1H-pyrrolo[3,2-c]pyridin-6-yl)phenyl)piperazin-1-yl)(phenyl)methanone]", "IC50": 8.2}, {"molecule": "CC(C)CN1CCN(c2ccc(-c3cc4c(cn3)cc(-c3ccc(S(C)(=O)=O)cc3)n4C)cc2)CC1", "note": "[Example 53, 6-(4-(4-isobutylpiperazin-1-yl)phenyl)-1-methyl-2-(4-(methylsulfonyl)phenyl)-1H-pyrrolo[3,2-c]pyridine]", "IC50": "> 50"}, {"molecule": "Cc1nc(-c2ccc(CN3CCN(CC(C)(C)O)CC3)cc2)cc2c1c(F)c(-c1ccc(S(C)(=O)=O)cc1)n2C", "note": "[Example 122, 1-(4-(4-(3-fluoro-1,4-dimethyl-2-(4-(methylsulfonyl)phenyl)-1H-pyrrolo[3,2-c]pyridin-6-yl)benzyl)piperazin-1-yl)-2-methylpropan-2-ol]", "IC50": 3.7}, {"molecule": "COc1ccc(-c2c(C)[nH]c3cnc(C4CCN(C(=O)CN(C)C)CC4)cc23)cc1OC", "note": "[Example 22, 1-(4-(3-(3,4-dimethoxyphenyl)-2-methyl-1H-pyrrolo[2,3-c]pyridin-5-yl)piperidin-1-yl)-2-(dimethylamino)ethan-1-one]", "IC50": "> 50"}]}]}
